In PubChem BioAssay (NCI):
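Step 1: Grow cells in 96-well plates. Step 2: Expose to compound for 48 hours at 5 concentrations. Step 3: Interpolate endpoints linearly; if unreached, use highest concentration. At the GI50, growth is halved. TGI marks complete inhibition of growth.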

Experiments:
Experiment in all cases: DTP human tumour cell line panel, 48 h
[1] = test system: 786-0 renal
[2] = test system: A498 renal
[3] = test system: A549 NSCLC
[4] = test system: ACHN renal
[5] = test system: BT-549 breast
[6] = test system: CAKI-1 renal
[7] = test system: CCRF-CEM leukemia
[8] = test system: COLO 205 colon
[9] = test system: DU-145 prostate
[10] = test system: EKVX NSCLC
[11] = test system: HCC-2998 colon
[12] = test system: HCT-116 colon
[13] = test system: HCT-15 colon
[14] = test system: HL-60(TB) leukemia
[15] = test system: HOP-62 NSCLC
[16] = test system: HOP-92 NSCLC
[17] = test system: HS 578T breast
[18] = test system: HT29 colon
[19] = test system: IGROV1 ovarian
[20] = test system: K-562 leukemia
[21] = test system: KM12 colon
[22] = test system: LOX IMVI melanoma
[23] = test system: M14 melanoma
[24] = test system: MALME-3M melanoma
[25] = test system: MCF7 breast
[26] = test system: MDA-MB-231 breast
[27] = test system: MDA-MB-435
[28] = test system: MDA-MB-468 breast
[29] = test system: MOLT-4 leukemia
[30] = test system: NCI-H226 lung
[31] = test system: NCI-H23 lung
[32] = test system: NCI-H460 lung
[33] = test system: NCI-H522 lung
[34] = test system: NCI/ADR-RES ovarian
[35] = test system: OVCAR-3 ovarian
[36] = test system: OVCAR-4 ovarian
[37] = test system: OVCAR-8 ovarian
[38] = test system: PC-3 prostate
[39] = test system: RPMI-8226 leukemia
[40] = test system: SF-268 CNS
[41] = test system: SF-295 CNS
[42] = test system: SF-539 CNS
[43] = test system: SK-MEL-2 melanoma
[44] = test system: SK-MEL-5 melanoma
[45] = test system: SK-OV-3 ovarian
[46] = test system: SN12C renal
[47] = test system: SNB-19 CNS
[48] = test system: SNB-75 CNS
[49] = test system: SR leukemia
[50] = test system: SW-620 colon
[51] = test system: T-47D breast
[52] = test system: TK-10 renal
[53] = test system: U251 CNS
[54] = test system: UACC-257 melanoma
[55] = test system: UACC-62 melanoma
[56] = test system: UO-31 renal
[57] = test system: OVCAR-5 ovarian
[58] = test system: RXF 393 renal
[59] = test system: SK-MEL-28 melanoma

**Q.** What does the source list for `O=C1NC(=O)c2c1c1c3cc(Br)ccc3[nH]c1c1oc3ccc(F)cc3c21`?
**A.** GI50 [1]: 3.62 µM; TGI [1]: 21.9 µM; GI50 [2]: 2.02 µM; TGI [2]: 3.54 µM; GI50 [3]: 6.84 µM; TGI [3]: > 100 µM; GI50 [4]: 1.97 µM; TGI [4]: 5.3 µM; GI50 [5]: 9.86 µM; TGI [5]: > 100 µM; GI50 [6]: 2.25 µM; TGI [6]: > 100 µM; GI50 [7]: 0.2 µM; TGI [7]: > 100 µM; GI50 [8]: 2.96 µM; TGI [8]: > 100 µM; GI50 [9]: 3.21 µM; TGI [9]: > 100 µM; GI50 [10]: 3.99 µM; TGI [10]: > 100 µM; GI50 [11]: 3.39 µM; TGI [11]: 45.6 µM; GI50 [12]: 3 µM; TGI [12]: > 100 µM; GI50 [13]: 2.93 µM; TGI [13]: > 100 µM; GI50 [14]: > 100 µM; TGI [14]: > 100 µM; GI50 [15]: 1.58 µM; TGI [15]: 3.52 µM; GI50 [16]: 1.59 µM; TGI [16]: 4.52 µM; GI50 [17]: 1.91 µM; TGI [17]: 4.66 µM; GI50 [18]: 3.59 µM; TGI [18]: > 100 µM; GI50 [19]: 1.03 µM; TGI [19]: 3.15 µM; GI50 [20]: 3.66 µM; TGI [20]: > 100 µM; GI50 [21]: 2.87 µM; TGI [21]: > 100 µM; GI50 [22]: 1.43 µM; TGI [22]: 2.77 µM; GI50 [23]: 3.16 µM; TGI [23]: > 100 µM; GI50 [24]: 1.42 µM; TGI [24]: 4.01 µM; GI50 [25]: 0.877 µM; TGI [25]: 3.32 µM; GI50 [26]: 1.57 µM; TGI [26]: 3.58 µM; GI50 [27]: 4.24 µM; TGI [27]: > 100 µM; GI50 [28]: 1.35 µM; TGI [28]: 3.06 µM; GI50 [29]: 0.533 µM; TGI [29]: > 100 µM; GI50 [30]: 1.1 µM; TGI [30]: 2.6 µM; GI50 [31]: 1.75 µM; TGI [31]: 4.06 µM; GI50 [32]: 1.46 µM; TGI [32]: 3.32 µM; GI50 [33]: 1.42 µM; TGI [33]: 3.31 µM; GI50 [34]: 3.43 µM; TGI [34]: > 100 µM; GI50 [35]: 2.14 µM; TGI [35]: 5.3 µM; GI50 [36]: 1.55 µM; TGI [36]: 3.33 µM; GI50 [37]: 1.67 µM; TGI [37]: 4.77 µM; GI50 [38]: 1.69 µM; TGI [38]: 4.99 µM; GI50 [39]: 3.71 µM; TGI [39]: > 100 µM; GI50 [40]: 2.61 µM; TGI [40]: 7.8 µM; GI50 [41]: 5.95 µM; TGI [41]: > 100 µM; GI50 [42]: 1.79 µM; TGI [42]: 3.53 µM; GI50 [43]: 2.21 µM; TGI [43]: 6.17 µM; GI50 [44]: 3.72 µM; TGI [44]: > 100 µM; GI50 [45]: 2.04 µM; TGI [45]: 5.37 µM; GI50 [46]: 1.71 µM; TGI [46]: 3.69 µM; GI50 [47]: 2.17 µM; TGI [47]: 6.04 µM; GI50 [48]: 2.09 µM; TGI [48]: 7.99 µM; GI50 [49]: 4.47 µM; TGI [49]: > 100 µM; GI50 [50]: 2.39 µM; TGI [50]: > 100 µM; GI50 [51]: 1.24 µM; TGI [51]: 4.51 µM; GI50 [52]: 3.47 µM; TGI [52]: > 100 µM; GI50 [53]: 1.73 µM; TGI [53]: 3.87 µM; GI50 [54]: 6.09 µM; TGI [54]: > 100 µM; GI50 [55]: 1.39 µM; TGI [55]: 4.88 µM; GI50 [56]: 0.358 µM; TGI [56]: > 100 µM

**Q.** What does the source list for `CN(C)c1nc(NCCNS(=O)(=O)c2ccc(C(=O)/C=C/c3ccc(F)cc3)cc2)nc(N2CCOCC2)n1`?
**A.** GI50 [1]: 14.5 µM; TGI [1]: 28.7 µM; GI50 [2]: 11.9 µM; TGI [2]: 24.4 µM; GI50 [3]: 13.7 µM; TGI [3]: 27.9 µM; GI50 [4]: 13.1 µM; TGI [4]: 26 µM; GI50 [5]: 15.1 µM; TGI [5]: 29.2 µM; GI50 [6]: 9.5 µM; TGI [6]: 21.9 µM; GI50 [7]: 6.58 µM; TGI [7]: 39.1 µM; GI50 [8]: 14.6 µM; TGI [8]: 30.2 µM; GI50 [9]: 14.4 µM; TGI [9]: 27.8 µM; GI50 [10]: 14.4 µM; TGI [10]: 27.8 µM; GI50 [11]: 16 µM; TGI [11]: 29.9 µM; GI50 [12]: 2.29 µM; TGI [12]: 5.25 µM; GI50 [13]: 2.15 µM; TGI [13]: 4.92 µM; GI50 [14]: 14.7 µM; TGI [14]: > 100 µM; GI50 [15]: 16.1 µM; TGI [15]: 31.5 µM; GI50 [16]: 12.7 µM; TGI [16]: 28.5 µM; GI50 [17]: 14.6 µM; TGI [17]: 54.6 µM; GI50 [18]: 2.85 µM; TGI [18]: 8.39 µM; GI50 [19]: 2.27 µM; TGI [19]: 6.18 µM; GI50 [20]: 3.7 µM; TGI [20]: > 100 µM; GI50 [21]: 13.4 µM; TGI [21]: 30.6 µM; GI50 [22]: 1.63 µM; TGI [22]: 3.17 µM; GI50 [23]: 15 µM; TGI [23]: 30.5 µM; GI50 [24]: 14.6 µM; TGI [24]: 28.2 µM; GI50 [25]: 2.99 µM; TGI [25]: 11.2 µM; GI50 [26]: 12.3 µM; TGI [26]: 25.3 µM; GI50 [27]: 11.6 µM; TGI [27]: 24.6 µM; GI50 [28]: 8.08 µM; TGI [28]: 22.6 µM; GI50 [29]: 4.69 µM; TGI [29]: > 100 µM; GI50 [30]: 12.3 µM; TGI [30]: 28.2 µM; GI50 [31]: 14.6 µM; TGI [31]: 28.1 µM; GI50 [32]: 15.7 µM; TGI [32]: 33 µM; GI50 [33]: 13.3 µM; TGI [33]: 26.6 µM; GI50 [35]: 14.6 µM; TGI [35]: 28.5 µM; GI50 [36]: 11.9 µM; TGI [36]: 24.7 µM; GI50 [57]: 13.6 µM; TGI [57]: 26.8 µM; GI50 [37]: 14.7 µM; TGI [37]: 28.2 µM; GI50 [38]: 11.2 µM; TGI [38]: 25.5 µM; GI50 [39]: 1.91 µM; TGI [39]: 5.07 µM; GI50 [58]: 8.82 µM; TGI [58]: 21.2 µM; GI50 [40]: 15 µM; TGI [40]: 37.5 µM; GI50 [41]: 11.3 µM; TGI [41]: 23.8 µM; GI50 [42]: 13.2 µM; TGI [42]: 25.9 µM; GI50 [43]: 13.7 µM; TGI [43]: 26.8 µM; GI50 [59]: 14.9 µM; TGI [59]: 28.2 µM; GI50 [44]: 15.7 µM; TGI [44]: 29.2 µM; GI50 [45]: 13.8 µM; TGI [45]: 27.6 µM; GI50 [46]: 12 µM; TGI [46]: 24.4 µM; GI50 [47]: 13.4 µM; TGI [47]: 26.5 µM; GI50 [49]: 3.45 µM; TGI [49]: > 100 µM; GI50 [50]: 3.39 µM; TGI [50]: 12.3 µM; GI50 [51]: 11.9 µM; TGI [51]: 33.5 µM; GI50 [52]: 15.3 µM; TGI [52]: 28.7 µM; GI50 [53]: 4.74 µM; TGI [53]: 16.7 µM; GI50 [54]: 15.5 µM; TGI [54]: 29.2 µM; GI50 [55]: 10.8 µM; TGI [55]: 23 µM; GI50 [56]: 11 µM; TGI [56]: 23 µM
